Read-outs that look alike come from different tables or passages of the source. Marks after values point to notes of the source that are not given here. Where a SMILES comes first, the peptide text is derived from it. [ ]: non-standard residue; d: D form. The star is where a group is joined. Dolaproine = CO[C@@H]([C@@H]1CCCN1)[C@@H](C)C(=O)O; Dil = CC[C@H](C)[C@H](NC)[C@@H](CC(=O)O)OC; X1 = C[C@@H](N*)[C@@H](O)c1ccccc1; NMeV = CN[C@H](C(=O)O)C(C)C
How the values were obtained:
CYP2B6 = assay: CYP2B6-catalyzed bupropion hydroxylase activity in human hepatocytes after 48 h treatment; conditions: human, 48 h, 10 nM
Experimental: (§1) Samples were incubated for 48 h at 37 °C in 5% CO2, and the medium was exchanged with 250 μL of fresh medium containing drugs or the vehicle every 24 h.
(§2) The effects of mertansine on CYP1A2, CYP2B6, and CYP3A4 activities were evaluated. […] Mixtures were vortexed for 2 min and then centrifuged at 13,000 g for 4 min at 4 °C. The supernatant (40 µL) was diluted with 60 µL of deionized water and then mixed for 2 min by vortexing. An aliquot (5 µL) was analyzed using LC-MS/MS [37], and CYP1A2, CYP2B6, and CYP3A4 enzyme activities were expressed as formation rates (pmol/million cells/min).
(§3) The percentage changes in enzymatic activities were calculated as (CYP activity with test compound treatment/CYP activity with vehicle control treatment) × 100. The IC50 (the concentration of the inhibitor needed for half-maximal inhibition) values were calculated using SigmaPlot ver. […] Ki (the inhibition constant) and the inhibition mode of UGT1A1, UGT1A3, and UGT1A4 activities were determined using Enzyme Kinetics ver. 1.1 (Systat Software, Inc.).

CYP2B6 mRNA = CYP2B6 mRNA level in human hepatocytes after 48 h treatment (RT-PCR); type: cell-based; conditions: 48 h, 10 nM
Description: (§4) 12.5 (Systat Software, Inc.; San Jose, CA, USA). […] 1.1 (Systat Software, Inc.).

[1] = test system: CYP1A2, CYP2B6, and CYP3A4 mRNA; set-up: method as in PMID 22752008; conditions: three human hepatocytes, cited from earlier work
CYP activities = test system: CYP activities; set-up: method as in PMID 22752008; conditions: three human hepatocytes, cited from earlier work
CYP1A2 mRNA = CYP1A2 mRNA level in human hepatocytes after 48 h treatment (RT-PCR); type: cell-based; conditions: 48 h, 50 µM
Description: as §4

UGT1A4 mRNA = UGT1A4 mRNA level in human hepatocytes after 48 h treatment (RT-PCR); conditions: 50 μM omeprazole, 48 h, range over three human hepatocytes
CYP1A2 = assay: CYP1A2-catalyzed phenacetin O-deethylase activity in human hepatocytes after 48 h treatment; conditions: 48 h; for Enzyme Activities: CYP1A2-catalyzed phenacetin O-deethylase activity: Omeprazole 50 μM
Experimental: as §1, §2, §3

UGT1A1 mRNA = UGT1A1 mRNA level in human hepatocytes after 48 h treatment (RT-PCR); conditions: 48 h
CYP2C8 mRNA = conditions: human, hepatocytes, 48 h, 10 μM
CYP2C19 mRNA = conditions: human, hepatocytes, 48 h, 10 μM
[2] = test system: HER2-positive metastatic breast cancer; conditions: five randomized clinical trials, 3,720 patients; cited from earlier work

In the case of `Clc1ccc(-c2nc3sccn3c2C=NOCc2ccc(Cl)c(Cl)c2)cc1` [CITCO, 6-(4-chlorophenyl)imidazo[2,1-b](1,3)thiazole-5-carbaldehyde-O-(3,4-dichlorobenzyl)oxime], the “Increase of CYP2B6-mediated bupropion hydroxylase activity” value (CYP2B6) is reported as 3.8–15.7 fold and the “Increase of CYP2B6 mRNA levels” value (CYP2B6 mRNA) is reported as 5.6–8.7 fold.
In the case of `CC[C@H](C)[C@@H]([C@@H](CC(=O)N1CCC[C@H]1[C@H](OC)[C@@H](C)C(=O)N[C@H](C)[C@@H](O)c1ccccc1)OC)N(C)C(=O)[C@@H](NC(=O)[C@@H](NC)C(C)C)C(C)C` [MMAE, monomethyl auristatin E] (H-[NMeV]V[Dil][Dolaproine]-X1), the “Suppression of CYP1A2, CYP2B6, and CYP3A4 mRNA expression” value ([1]; 100 nM MMAE) is given as 61–90%, the “Suppression of CYP1A2, CYP2B6, and CYP3A4 mRNA expression” value ([1]; 1000 nM MMAE) is given as 95–97% and the “Decrease of CYP activities” value (CYP activities; 100 nM MMAE) is given as 40–71%. For the same compound, the “Decrease of CYP activities” value (CYP activities; 1000 nM MMAE) was 45–81%.
With `COc1ccc2[nH]c([S+]([O-])Cc3ncc(C)c(OC)c3C)nc2c1` (centres unmarked) [Omeprazole, omeprazole] the “Increase of CYP1A2 mRNA levels” value (CYP1A2 mRNA) was 58.7–299.3 fold, the “Increase of UGT1A4 mRNA levels” value (UGT1A4 mRNA) was 3.3–4.1 fold and the “Increase of CYP1A2-mediated phenacetin O-deethylase activity” value (CYP1A2; 50 µM omeprazole, vs vehicle, range over three human hepatocytes) was 11.7–61.8 fold. For the same compound, the “Enzyme Activities: CYP1A2-catalyzed phenacetin O-deethylase activity” value (“Enzyme Activities” for short) (CYP1A2; Lot 319) was 18.5 ± 3.3 ^a pmol/10^6 Cells/min, the “Enzyme Activities” value (CYP1A2; Lot 321) was 89.45 ± 4.52 ^a pmol/10^6 Cells/min and the “Enzyme Activities” value (CYP1A2; Lot 361) was 81.0 ± 0.53 ^a pmol/10^6 Cells/min. For the same compound, the “Increase of UGT1A1 mRNA levels” value (UGT1A1 mRNA; 50 μM omeprazole, range over three human hepatocytes) was 3.9–7.0 fold and the “UGT1A1 mRNA (Fold Change)” value (UGT1A1 mRNA; Omeprazole 50 μM, Lot 319) was 6.97 ± 0.94 Fold Change.
For `CO[C@H]1/C=C/O[C@@]2(C)Oc3c(C)c(O)c4c(O)c(c(/C=N/N5CCN(C)CC5)c(O)c4c3C2=O)NC(=O)/C(C)=C\C=C\[C@H](C)[C@H](O)[C@@H](C)[C@@H](O)[C@@H](C)[C@H](OC(C)=O)[C@@H]1C` [Rifampin, rifampin], the “Increase of CYP2C8 mRNA levels” value (CYP2C8 mRNA) was 3.7–4.8 fold and the “Increase of CYP2C19 mRNA levels” value (CYP2C19 mRNA) was 2.0–2.2 fold.
In the case of trastuzumab emtansine [T-DM1], the “Progression-free survival and overall survival compared to other anti-HER2 therapies” value [2] is listed as “significantly prolonged”.

— PMC7150891, “Mertansine Inhibits mRNA Expression and Enzyme Activities of Cytochrome P450s and Uridine 5′-Diphospho-Glucuronosyltransferases in Human Hepatocytes and Liver Microsomes” (Pharmaceutics, 2020)
